# Experimental data reported in patent publication US20190053492A1, “SUBSTITUTED PYRIDINE COMPOUNDS AS PESTICIDES” (Bayer CropScience Aktiengesellschaft, priority 2016, published 2019).
# Like-named read-outs stand apart in the source and are kept apart here.
# Columns and labels:
# [1] = log P by HPLC on reversed-phase column (C 18), EEC Directive 79/831 Annex V.A8; type: physicochemical; settings: 55° C.; for LOGP_HCOOH: log P (HCOOH); for chromatographic logP: reversed-phase HPLC column (C 18)
# Experimental: Temperature: 55° C. […] Called log P (HCOOH) in the table. […] Called log P (neutral) in the table.
# Phaedon cochleariae = Phaedon cochleariae spray test; type: in vivo; settings: after 7 days, Chinese cabbage leaf discs
# Procedure, shortened: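 Larval kill read at day 7 as percent, where 100% means every larva dead and 0% none; larvae were placed on dried Brassica pekinensis leaf discs previously sprayed with the formulation (acetone/dimethylformamide solvent, alkylaryl polyglycol ether emulsifier, water).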
# Ctenocephalides felis [2] = assay: Ctenocephalides felis oral test; type: in vivo; settings: application rate 100 ppm in citrated cattle blood, after 2 days, adult cat fleas
# Procedure, shortened: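 Kill (%) was recorded at 2 days. Compound, dissolved in DMSO and diluted into citrated cattle blood, was offered to roughly 20 unfed adult C. felis through parafilm.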
# Ctenocephalides felis [3] = assay: Ctenocephalides felis in vitro contact test with adult cat fleas; type: in vivo; settings: application rate 5 μg/cm^2 (500 g/ha), after 48 h
# Experimental: Ctenocephalides felis—In Vitro Contact Tests with Adult Cat Fleas
# For the coating of the test tubes, 9 mg of active ingredient are first dissolved in 1 ml of acetone p.a. and then diluted to the desired concentration with acetone p.a. 250 μl of the solution are distributed homogeneously on the inner walls and the base of a 25 ml glass tube by turning and rocking on an orbital shaker (rocking rotation at 30 rpm for 2 h). With 900 ppm of active ingredient solution and internal surface area 44.7 cm^2, given homogeneous distribution, an area-based dose of 5 μg/cm^2 is achieved.
# After the solvent has evaporated off, the tubes are populated with 5-10 adult cat fleas (Ctenocephalides felis), sealed with a perforated plastic lid and incubated in a horizontal position at room temperature and ambient humidity. After 48 h, efficacy is determined. To this end, the tubes are stood upright and the fleas are knocked to the base of the tube. Fleas which remain motionless at the base or move in an uncoordinated manner are considered to be dead or moribund.
# 100% efficacy means that all the fleas were dead or moribund. 0% efficacy means that no fleas were harmed.
# Spodoptera frugiperda = Spodoptera frugiperda spray test; type: in vivo; settings: after 7 days, maize leaf discs
# Procedure, shortened: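 Efficacy in % was scored at 7 days against armyworm caterpillars placed on dried, compound-sprayed Zea mays leaf discs. Compound was dissolved in acetone/dimethylformamide and diluted in water with 1000 ppm alkylaryl polyglycol ether. 100% means all caterpillars were killed.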
# Lucilia cuprina = Lucilia cuprina test; type: in vivo; settings: application rate 100 ppm, after 2 days, L1 larvae
# Procedure, shortened: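 Percent mortality read at day 2, where 100% means all larvae dead. Roughly 20 L1 larvae were exposed on minced horsemeat treated with a DMSO/water formulation at the desired concentration.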
# Musca domestica = Musca domestica test; type: in vivo; settings: after 2 days, adult houseflies
# Experimental: Musca domestica Test Solvent: dimethyl sulphoxide To produce a suitable active ingredient formulation, 10 mg of active ingredient are mixed with 0.5 ml of dimethyl sulphoxide, and the concentrate is diluted with water to the desired concentration. Vessels containing a sponge treated with sugar solution and the active ingredient formulation of the desired concentration are populated with 10 adult houseflies (Musca domestica). After 2 days, the kill in % is determined. 100% means that all of the flies have been killed; 0% means that none of the flies have been killed.
# Meloidogyne incognita = Meloidogyne incognita test; type: in vivo; settings: application rate 20 ppm, after 14 days, lettuce
# Experimental: Meloidogyne incognita Test Solvent: 125.0 parts by weight of acetone To produce a suitable active ingredient formulation, 1 part by weight of active ingredient is mixed with the stated amount of solvent and the concentrate is diluted with water to the desired concentration. Vessels are filled with sand, active ingredient solution, an egg/larvae suspension of the southern root-knot nematode (Meloidogyne incognita) and lettuce seeds. The lettuce seeds germinate and the plants develop. The galls develop on the roots. After 14 days, the nematicidal efficacy in % is determined by the formation of galls. 100% means that no galls were found; 0% means that the number of galls on the treated plants corresponds to the untreated control.
# Tetranychus urticae = Tetranychus urticae spray test, OP-resistant; type: in vivo; settings: application rate 500 g/ha, after 6 days, bean leaf discs
# Experimental: Tetranychus urticae—Spray Test, OP-Resistant
# Solvent: 78.0 parts by weight of acetone • • 1.5 parts by weight of dimethylformamide
# Emulsifier: alkylaryl polyglycol ether
# To produce a suitable active ingredient formulation, 1 part by weight of active ingredient is dissolved with the specified parts by weight of solvent and made up with water containing an emulsifier concentration of 1000 ppm until the desired concentration is attained. To produce further test concentrations, the formulation is diluted with emulsifier-containing water.
# Discs of bean leaves (Phaseolus vulgaris) infested with all stages of the greenhouse red spider mite (Tetranychus urticae) are sprayed with an active ingredient formulation of the desired concentration.
# After 6 days, the efficacy in % is determined. 100% means that all the spider mites have been killed; 0% means that no spider mites have been killed.
# [4] = acidic range pH 2.7, 0.1% aqueous formic acid and acetonitrile, reversed-phase column (C 18)
# [5] = log P, neutral range, HPLC on reversed-phase column (C 18)
# [6] = acidic range at pH 2.7, 0.1% aqueous formic acid and acetonitrile, HPLC on reversed-phase column (C 18)
structure (smiles),measurement,setting,value
O=C(NC1CC1)c1cc(-c2ccc(C(F)(F)F)cc2)cc(NC(=O)C2CC2)n1 [Example I-013],LOGP_HCOOH,[1]; [4],3.37
same,LOGP_NEUTRAL,[1]; [5],3.37
same,efficacy (beetle larvae killed),Phaedon cochleariae; application rate 100 g/ha,100%
same,efficacy (beetle larvae killed),Phaedon cochleariae; application rate 500 g/ha,100%
same,efficacy (kill in %),Ctenocephalides felis [2],100%
same,efficacy (fleas dead or moribund),Ctenocephalides felis [3],80%
same,efficacy (caterpillars killed),Spodoptera frugiperda; application rate 100 g/ha,100%
same,efficacy (caterpillars killed),Spodoptera frugiperda; application rate 500 g/ha,100%
same,efficacy (kill in %),Lucilia cuprina,100%
same,efficacy (kill in %),Musca domestica; application rate 100 ppm,100%
N#CCNC(=O)c1cc(-c2ccc(C(F)(F)F)cc2)cc(NC(=O)C2CC2)n1 [Example I-025],nematicidal efficacy (formation of galls),Meloidogyne incognita,100%
same,LOGP_HCOOH,[1]; [4],3.05
same,LOGP_NEUTRAL,[1]; [5],3.01
same,efficacy (beetle larvae killed),Phaedon cochleariae; application rate 500 g/ha,100%
same,efficacy (kill in %),Ctenocephalides felis [2],98%
same,efficacy (caterpillars killed),Spodoptera frugiperda; application rate 100 g/ha,100%
same,efficacy (caterpillars killed),Spodoptera frugiperda; application rate 500 g/ha,100%
"CN(C(=O)c1cc(-c2ccc(C(F)(F)F)cc2)cc(NC(=O)C2CC2)n1)C1CC1 [Example I-036, N-Cyclopropyl-6-[(cyclopropylcarbonyl)amino]-N-methyl-4-[4-(trifluoromethyl)phenyl]pyridine-2-carboxamide]",efficacy (spider mites killed),Tetranychus urticae,90%
same,LOGP_NEUTRAL,[1]; [5],3.21
same,chromatographic logP,"[1]; pH 2.7, log P (HCOOH), acidic range pH 2.7, 0.1% aqueous formic acid and acetonitrile, reversed-phase column (C 18), read-out: LOGP_HCOOH",3.3
same,chromatographic logP,"[1]; pH 7.8, LC-MS neutral range, pH 7.8, ammonium hydrogencarbonate/acetonitrile, read-out: log P (neutral)",3.21
same,pest or weed control at 100 ppm,"Ctenocephalides felis [2]; Ctenocephalides felis, po, 48 h, read-out: efficacy (kill in %)",100%
same,pest or weed control at 500 g/ha,"Spodoptera frugiperda; Spodoptera frugiperda, foliar, 168 h, application rate 500 g/ha, read-out: efficacy (caterpillars killed)",83%
C#CCNC(=O)c1cc(-c2ccc(C(F)(F)F)cc2)cc(NC(=O)C2CC2)n1 [Example I-038],nematicidal efficacy (formation of galls),Meloidogyne incognita,90%
same,LOGP_HCOOH,[1]; [4],3.34
same,LOGP_NEUTRAL,[1]; [5],3.25
same,efficacy (beetle larvae killed),Phaedon cochleariae; application rate 100 g/ha,100%
same,efficacy (beetle larvae killed),Phaedon cochleariae; application rate 500 g/ha,83%
same,efficacy (caterpillars killed),Spodoptera frugiperda; application rate 500 g/ha,83%
N#Cc1cccc(CCNC(=O)c2cc(-c3ccc(OC(F)(F)F)cc3)cc(NC(=O)C3CC3)n2)c1 [Example I-091],efficacy (spider mites killed),Tetranychus urticae,90%
same,LOGP_HCOOH,[1]; [4],4.01
same,LOGP_NEUTRAL,[1]; [5],3.88
same,efficacy (beetle larvae killed),Phaedon cochleariae; application rate 500 g/ha,100%
same,efficacy (kill in %),Ctenocephalides felis [2],95%
same,efficacy (caterpillars killed),Spodoptera frugiperda; application rate 100 g/ha,100%
same,efficacy (caterpillars killed),Spodoptera frugiperda; application rate 500 g/ha,100%
same,efficacy (kill in %),Lucilia cuprina,100%
O=C(NC1CC1)c1cc(-c2ccc(SC(F)(F)F)cc2)cc(NC(=O)C2CC2)n1 [Example I-105],efficacy (spider mites killed),Tetranychus urticae,100%
same,LOGP_HCOOH,[1]; [4],3.86
same,LOGP_NEUTRAL,[1]; [5],3.71
same,efficacy (beetle larvae killed),Phaedon cochleariae; application rate 100 g/ha,100%
same,efficacy (beetle larvae killed),Phaedon cochleariae; application rate 500 g/ha,100%
same,efficacy (kill in %),Ctenocephalides felis [2],100%
same,efficacy (caterpillars killed),Spodoptera frugiperda; application rate 100 g/ha,83%
same,efficacy (caterpillars killed),Spodoptera frugiperda; application rate 500 g/ha,100%
CCNC(=O)c1cc(-c2ccc(OC(F)(F)F)cc2)cc(NC(=O)C2CC2)n1 [Example I-118],LOGP_HCOOH,[1]; [6],3.41
same,LOGP_NEUTRAL,[1]; [5],3.33
same,efficacy (beetle larvae killed),Phaedon cochleariae; application rate 100 g/ha,100%
same,efficacy (beetle larvae killed),Phaedon cochleariae; application rate 500 g/ha,100%
same,efficacy (kill in %),Ctenocephalides felis [2],100%
same,efficacy (fleas dead or moribund),Ctenocephalides felis [3],100%
same,efficacy (caterpillars killed),Spodoptera frugiperda; application rate 100 g/ha,100%
same,efficacy (caterpillars killed),Spodoptera frugiperda; application rate 500 g/ha,100%
CC1(NC(=O)c2cc(-c3ccc(OC(F)(F)F)cc3)cc(NC(=O)C3CC3)n2)CC1 [Example I-128],LOGP_HCOOH,[1]; [6],3.84
same,efficacy (beetle larvae killed),Phaedon cochleariae; application rate 100 g/ha,100%
same,efficacy (beetle larvae killed),Phaedon cochleariae; application rate 500 g/ha,100%
same,efficacy (kill in %),Ctenocephalides felis [2],100%
same,efficacy (fleas dead or moribund),Ctenocephalides felis [3],100%
same,efficacy (caterpillars killed),Spodoptera frugiperda; application rate 100 g/ha,100%
same,efficacy (caterpillars killed),Spodoptera frugiperda; application rate 500 g/ha,100%
same,efficacy (kill in %),Lucilia cuprina,100%
O=C(NC1CSC1)c1cc(-c2ccc(OC(F)(F)F)cc2)cc(NC(=O)C2CC2)n1 [Example I-162],nematicidal efficacy (formation of galls),Meloidogyne incognita,90%
same,LOGP_HCOOH,[1]; [6],3.88
same,LOGP_NEUTRAL,[1]; [5],3.93
same,efficacy (beetle larvae killed),Phaedon cochleariae; application rate 100 g/ha,100%
same,efficacy (beetle larvae killed),Phaedon cochleariae; application rate 500 g/ha,100%
same,efficacy (kill in %),Ctenocephalides felis [2],100%
same,efficacy (fleas dead or moribund),Ctenocephalides felis [3],100%
same,efficacy (caterpillars killed),Spodoptera frugiperda; application rate 100 g/ha,100%
same,efficacy (caterpillars killed),Spodoptera frugiperda; application rate 500 g/ha,100%
COCCNC(=O)c1cc(-c2ccc(OC(F)(F)F)cc2)cc(NC(=O)C2CC2)n1 [Example I-177],nematicidal efficacy (formation of galls),Meloidogyne incognita,90%
same,LOGP_HCOOH,[1]; [6],3.29
same,LOGP_NEUTRAL,[1]; [5],3.26
N#Cc1ccc(CNC(=O)c2cc(-c3ccc(C(F)(F)C(F)(F)F)cc3)cc(NC(=O)C3CC3)n2)cc1 [Example I-182],efficacy (spider mites killed),Tetranychus urticae,90%
same,LOGP_HCOOH,[1]; [6],4.24
same,LOGP_NEUTRAL,[1]; [5],4.07
same,efficacy (beetle larvae killed),Phaedon cochleariae; application rate 100 g/ha,100%
same,efficacy (beetle larvae killed),Phaedon cochleariae; application rate 500 g/ha,100%
same,efficacy (kill in %),Ctenocephalides felis [2],100%
same,efficacy (caterpillars killed),Spodoptera frugiperda; application rate 100 g/ha,100%
same,efficacy (caterpillars killed),Spodoptera frugiperda; application rate 500 g/ha,100%
same,efficacy (kill in %),Lucilia cuprina,100%
N#CC1CCC(NC(=O)c2cc(-c3ccc(OC(F)(F)F)cc3)cc(NC(=O)C3CC3)n2)CC1 (centres unmarked) [Example I-197],LOGP_HCOOH,[1]; [6],3.76
same,LOGP_NEUTRAL,[1]; [5],3.66
same,efficacy (beetle larvae killed),Phaedon cochleariae; application rate 100 g/ha,83%
same,efficacy (beetle larvae killed),Phaedon cochleariae; application rate 500 g/ha,100%
same,efficacy (kill in %),Ctenocephalides felis [2],100%
same,efficacy (fleas dead or moribund),Ctenocephalides felis [3],100%
same,efficacy (caterpillars killed),Spodoptera frugiperda; application rate 100 g/ha,100%
same,efficacy (caterpillars killed),Spodoptera frugiperda; application rate 500 g/ha,100%
same,efficacy (kill in %),Lucilia cuprina,100%
same,efficacy (kill in %),Musca domestica; application rate 20 ppm,100%
same,efficacy (kill in %),Musca domestica; application rate 100 ppm,80%
O=C(NC1CC1(F)F)c1cc(-c2ccc(OC(F)(F)F)cc2)cc(NC(=O)C2CC2)n1 (centres unmarked) [Example I-216],LOGP_HCOOH,[1]; [6],3.85
same,LOGP_NEUTRAL,[1]; [5],3.74
same,efficacy (beetle larvae killed),Phaedon cochleariae; application rate 100 g/ha,100%
same,efficacy (beetle larvae killed),Phaedon cochleariae; application rate 500 g/ha,100%
same,efficacy (kill in %),Ctenocephalides felis [2],100%
same,efficacy (fleas dead or moribund),Ctenocephalides felis [3],100%
same,efficacy (caterpillars killed),Spodoptera frugiperda; application rate 100 g/ha,100%
same,efficacy (caterpillars killed),Spodoptera frugiperda; application rate 500 g/ha,100%
same,efficacy (kill in %),Lucilia cuprina,80%
O=C(NN=Cc1ccc(C(F)(F)F)c(F)c1)c1cc(-c2ccc(OC(F)(F)F)cc2)cc(NC(=O)C2CC2)n1 [Example I-257],nematicidal efficacy (formation of galls),Meloidogyne incognita,90%
same,LOGP_HCOOH,[1]; [4],4.72
same,efficacy (caterpillars killed),Spodoptera frugiperda; application rate 500 g/ha,100%
O=C(NCc1ccc(N2CCCC2=O)cc1)c1cc(-c2ccc(OC(F)(F)F)cc2)cc(NC(=O)C2CC2)n1 [Example I-259],nematicidal efficacy (formation of galls),Meloidogyne incognita,90%
same,LOGP_HCOOH,[1]; [4],3.55
same,LOGP_NEUTRAL,"[1]; log P (neutral), HPLC reversed-phase column (C 18)",3.58
same,efficacy (beetle larvae killed),Phaedon cochleariae; application rate 500 g/ha,83%
same,efficacy (caterpillars killed),Spodoptera frugiperda; application rate 500 g/ha,100%
